Laboratory results taken from ChEMBL document CHEMBL3797166, “Identification of N-phenyl-2-(N-phenylphenylsulfonamido)acetamides as new RORγ inverse agonists: Virtual screening, structure-based optimization, and biological evaluation” (Eur J Med Chem, 2016).
Activity calls are given as the source filed them. The calls are words filed in the database; no cut-off is given here.

Assays:
[1] = target: T1, Nuclear receptor ROR-gamma (Homo sapiens, UniProt P51449); assay: Inhibition of Gal4-RORgamma-LBD (180 to 507 residues) (unknown origin) expressed in HEK293T cells after 24 hrs by dual-luciferase reporter assay; type: cell-based, HEK-293T
T1 sequence (P51449 whole entry): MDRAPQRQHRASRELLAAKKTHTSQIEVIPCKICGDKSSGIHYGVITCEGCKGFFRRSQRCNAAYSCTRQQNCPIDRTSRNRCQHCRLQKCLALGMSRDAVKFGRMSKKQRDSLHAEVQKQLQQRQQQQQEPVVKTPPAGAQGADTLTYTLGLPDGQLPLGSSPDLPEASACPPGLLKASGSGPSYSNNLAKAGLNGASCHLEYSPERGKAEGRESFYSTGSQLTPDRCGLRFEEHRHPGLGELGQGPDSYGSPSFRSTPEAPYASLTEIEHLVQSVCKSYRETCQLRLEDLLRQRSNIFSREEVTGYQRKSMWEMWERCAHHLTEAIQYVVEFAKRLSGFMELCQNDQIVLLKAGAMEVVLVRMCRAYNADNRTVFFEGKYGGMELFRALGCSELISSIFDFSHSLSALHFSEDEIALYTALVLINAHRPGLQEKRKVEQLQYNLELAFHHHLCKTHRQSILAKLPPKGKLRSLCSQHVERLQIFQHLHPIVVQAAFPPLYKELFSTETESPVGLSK

[2] = target: T2, Nuclear receptor ROR-gamma (Homo sapiens) (UniProt P51449)
T2 sequence (whole entry): T1 sequence (P51449 whole entry)
Description: Binding affinity to N-terminal His6-fused human RORgamma-LBD (262 to 507 residues) expressed in Escherichia coli BL21 (DE3) assessed as inhibition of thermal stability activity at 200 uM incubated for 30 mins by RT-PCR analysis

[3] = target: T1, Nuclear receptor ROR-gamma; assay: Displacement of N-terminal biotinylated SRC1-4 coactivator peptide from N-terminal His6-fused human RORgamma-LBD (262 to 507 residues) expressed in Escherichia coli BL21 (DE3) by luminescence-based Alphascreen assay

Compound	IC50 ([1]; read-out: IC50) [µM]	ΔTm [2] [°C]	IC50 ([3]; read-out: IC50) [µM]	IC50 ([1]; hek-293t)	IC50 [3]	deltaTm [2]
CCCCCCNC(=O)CN(c1cccc(C(F)(F)F)c1)S(=O)(=O)c1ccc(C)cc1				Not Active	Not Active	
Cc1ccc(S(=O)(=O)N(CC(=O)Nc2ccc(C#N)cc2)c2ccc(Cl)c(Cl)c2)cc1	0.63	3.5	0.22			
Cc1ccc(S(=O)(=O)N(CC(=O)Nc2ccc(OCc3ccccc3)cc2)c2cccc(C(F)(F)F)c2)cc1			93.9	Not Active		
Cc1ccc(S(=O)(=O)N(CC(=O)Nc2ccc(C(O)(C(F)(F)F)C(F)(F)F)cc2)c2cccc(C(F)(F)F)c2)cc1		0.5	112			
CC(=O)N1CCN(C(=O)CN(c2cccc(C(F)(F)F)c2)S(=O)(=O)c2ccc(C)cc2)CC1	10.4		175			inactive
COc1ccc(NC(=O)CN(c2cccc(C(F)(F)F)c2)S(=O)(=O)c2ccc(C)cc2)cc1OC	2.44	1.3	12.8			
Cc1ccc(S(=O)(=O)N(CC(=O)NC2CCCCC2)c2cccc(C(F)(F)F)c2)cc1	1.03	0.1			Not Active	
Cc1ccc(S(=O)(=O)N(CC(=O)Nc2nc(C)cs2)c2cccc(C(F)(F)F)c2)cc1	3.65	0.8	15.8			
Cc1ccc(S(=O)(=O)N(CC(=O)Nc2ccc(C#N)cc2)c2ccc(C(F)(F)F)cc2)cc1	0.62	3.05	1.07			
Cc1ccc(S(=O)(=O)N(CC(=O)Nc2ccc(C#N)cc2)c2ccc(C#N)cc2)cc1	1.31	1.71	65.3			
Cc1ccc(S(=O)(=O)N(CC(=O)Nc2ccc(C#N)cc2)c2ccc(F)cc2)cc1	0.91	2.15	36.1			
Cc1ccc(N(CC(=O)Nc2ccc(C#N)cc2)S(=O)(=O)Cc2ccc(F)cc2)cc1	1.78	2.5	25.8			
Cc1ccc(N(CC(=O)Nc2ccc(C#N)cc2)S(=O)(=O)Cc2ccccc2)cc1	0.63	1.71	36.8			
Cc1ccc(N(CC(=O)Nc2ccc(C#N)cc2)S(=O)(=O)c2ccc(F)cc2)cc1	1.45	2.8	10.3			

Other lines, results leading:

IC50 ([1]; read-out: IC50) [µM]	ΔTm [2] [°C]	IC50 ([3]; read-out: IC50) [µM]	IC50 ([1]; hek-293t)	IC50 [3]	deltaTm [2]	Compound
0.59	1.25	11.3				CC(=O)c1ccc(NC(=O)CN(c2cccc(C(F)(F)F)c2)S(=O)(=O)c2ccc(C)cc2)cc1
			Not Active			Cc1ccc(S(=O)(=O)N(CC(=O)Nc2cccc(C(=O)O)c2)c2cccc(C(F)(F)F)c2)cc1
			Not Active	Not Active		Cc1ccc(S(=O)(=O)N(CC(=O)Nc2ccc(OC(F)(F)F)cc2)c2cccc(C(F)(F)F)c2)cc1
4.54	1.8	62.6				Cc1ccc(S(=O)(=O)N(CC(=O)Nc2ccc(F)cc2F)c2cccc(C(F)(F)F)c2)cc1
		67.1	Not Active			COC(=O)c1ccc(CNC(=O)CN(c2cccc(C(F)(F)F)c2)S(=O)(=O)c2ccc(C)cc2)cc1
8.28	2.2	15.2				Cc1ccc(S(=O)(=O)N(CC(=O)NCc2ccncc2)c2cccc(C(F)(F)F)c2)cc1
8.34	1.6	13.6				Cc1ccc(S(=O)(=O)N(CC(=O)Nc2ccc(O)cc2)c2cccc(C(F)(F)F)c2)cc1
27.2	1			Not Active		Cc1ccc(CNC(=O)CN(c2cccc(C(F)(F)F)c2)S(=O)(=O)c2ccc(C)cc2)cc1
0.9	3.5	0.77				Cc1ccc(S(=O)(=O)N(CC(=O)Nc2ccc(C#N)cc2)c2cccc(C(F)(F)F)c2)cc1
7.51	1.07	13.1				Cc1ccc(S(=O)(=O)N(CC(=O)NCc2ccc(F)cc2)c2cccc(C(F)(F)F)c2)cc1
152		93.3			inactive	Cc1ccc(S(=O)(=O)N(CC(=O)O)c2cccc(C(F)(F)F)c2)cc1
0.42	1.9	35.1				Cc1ccc(S(=O)(=O)N(CC(=O)Nc2ccc(C(N)=O)cc2)c2cccc(C(F)(F)F)c2)cc1
6.06				Not Active		COC(=O)c1cccc(NC(=O)CN(c2cccc(C(F)(F)F)c2)S(=O)(=O)c2ccc(C)cc2)c1
1.39	2.1					COC(=O)c1ccccc1NC(=O)CN(c1cccc(C(F)(F)F)c1)S(=O)(=O)c1ccc(C)cc1
22.1	1	14.7				Cc1ccc(S(=O)(=O)N(CC(=O)NCc2ccc(O)cc2)c2cccc(C(F)(F)F)c2)cc1
3.37	2.1	3.99				Cc1ccc(S(=O)(=O)N(CC(=O)Nc2ccc(F)cc2)c2cccc(C(F)(F)F)c2)cc1
3.98	1.15	11.8				COC(=O)c1ccc(NC(=O)CN(c2cccc(C(F)(F)F)c2)S(=O)(=O)c2ccc(C)cc2)cc1
